Measured values as given in patent publication US20220396580A1, “TRICYCLIC DILACTONE COMPOUND, AND PRODUCTION METHOD AND USE THEREOF” (SEOUL NATIONAL UNIVERSITY R&DB FOUNDATION, priority 2020, published 2022).

Columns and labels:
human A131-42 monomer [1] = molecular target: T1, human A131-42 monomer (Homo sapiens, UniProt P05067); experiment: Disaggregation of amyloid-beta aggregates (thioflavine-T fluorescence); type: biochemical
T1 construct: UniProt KB-P05067, a.a; 672 to 713
Description: An amyloid-beta solution was prepared by dissolving human A131-42 monomer (UniProt KB-P05067, a.a. 672 to 713) in DMSO to have a concentration of 10 mM. Then, the amyloid-beta solution was diluted with distilled water to prepare a solution having a concentration of 100 μM. Meanwhile, thioflavine-T (Sigma-Aldrich) was dissolved in 50 mM glycin buffer (pH 8.5) to have a concentration of 5 mM. Then, the resulting solution was diluted with 50 mM glycin buffer (pH 8.5) to have a concentration of 5 μM, and stored light-blocked in a dark room. In addition, to verify the activity of rhizolutin on disaggregation of the amyloid-beta aggregation, the amyloid-beta solution was added to a 1.5 mL microtube to a concentration of 25 μM and incubated at 37° C. for 72 hours. Then, 1 mM of rhizolutin was added to each microtube, followed by incubation at 37° C. for 72 hours. […] Then, fluorescence intensity was measured at an excitation wavelength of 450 nm and an emission wavelength of 485 nm by using a multi-mode microplate reader. Based on the fluorescence intensity of the group (control group) in which only amyloid-beta was treated and aggregated for 72 hours, the fluorescence intensity (%) of each group was calculated, and results are shown in FIG. 3B (mean±SEM, *: p<0.05, ***: p<0.001).

APP/PS1 transgenic mice = experiment: Amyloid-beta aggregates in brain tissue of APP/PS1 transgenic mice (thioflavine S / GFAP staining); type: in vivo, mouse; conditions: 8 mg/kg/day intraperitoneal for 3 weeks
Description: First, APP/PS1 transgenic mice (7.5-month-old, male, Jackson Laboratory, 9 to 10 mice/group) to which the genes of AD patients were injected were prepared. In the APP/PS1 transgenic mice, human amyloid-beta is expressed at a high level, and Alzheimer-like plaques are formed in the brain.
The prepared mice were intraperitoneally administered daily with rhizolutin at a dose of 8 mg/body weight (kg)/day for 3 weeks. As a negative control group, the prepared mice were intraperitoneally administered with a vehicle only.
Afterwards, the mouse brain was removed, and changes in amyloid-beta aggregates (in the form of oligomer or fibril) as AD biomarkers in the brain tissue were measured.

Tau protein [2] = experiment: Disaggregation of tau aggregates (thioflavin T fluorescence); type: biochemical; conditions: 1 mM rhizolutin vs 20 mM EPPS
Description: Meanwhile, the tau protein was added to a 1.5 mL microtube at a concentration of 0.5 mg/mL, and incubated at 37° C. for 48 hours. Then, rhizolutin was added at a concentration of 1 mM, and incubated at 37° C. for 72 hours. To compare the efficacy, EPPS was added at a concentration of 20 mM, and incubated under the same conditions.
(§1) Thioflavin T was added to the reaction, and the fluorescence intensity was measured at an excitation wavelength of 450 nm and an emission wavelength of 485 nm. As a negative control group, a vehicle without the tau protein and rhizolutin was used.
(§2) Based on the fluorescence intensity of the group in which only the tau protein was treated (positive control group), the fluorescence intensity (%) of each group was calculated, and results are shown in FIGS. 6A and 6B (mean±SEM, *: p<0.01, ***: p<0.001).

Tau protein [3] = experiment: Inhibition of formation of tau aggregates (thioflavin T fluorescence); type: biochemical; conditions: 1 mM rhizolutin vs 20 mM EPPS
Description: Tau protein was prepared at a concentration of 1 mg/mL, and as described in Example 2-3, the prepared tau protein was added to a 1.5 mL microtube at a concentration of 0.5 mg/mL, and 1 mM of rhizolutin and 20 mM of EPPS were added thereto, followed by incubation at 37° C. for 120 hours.
as §1, §2

[4] = test system: HT-22 mouse hippocampal neuronal cells and BV2 microglial cells; experiment: Immunoblotting of cleaved caspase-3 and Bcl-2 in cells treated with amyloid-beta aggregates; type: cell-based; conditions: amyloid-beta aggregates and 20 μM rhizolutin together, 24 hours
From the text: To verify the inhibitory activity of rhizolutin on the neurotoxicity of the amyloid-beta aggregates, changes in apoptosis-related biomarkers after exposing neurons to the neurotoxicity of the amyloid-beta aggregates were observed. Here, cleaved caspase-3, which is an apoptosis-inducing factor, and B-cell lymphoma 2 (Bcl-2), which inhibits apoptosis, were used as the biomarkers.
HT-22 mouse hippocampal neuronal cells and BV2 microglial cells were inoculated into a plate in a predetermined number. To each of the HT-22 cell line and the BV2 cell line, an amyloid-beta solution prepared in the same manner as in Example 2-2 was added at a concentration of […], followed by incubation at 37° C. for 24 hours. Afterwards, 20 μM of rhizolutin was added to each microtube, followed by incubation with amyloid-beta in a final concentration of 20 μM at 37° C. for 24 hours. As a negative control group, a group without rhizolutin and the amyloid-beta protein was used.
Cleaved caspase-3 and Bcl-2, which are apoptosis-related biomarkers, were identified by immunoblotting, and images thereof are shown in FIG. 5A.

human A131-42 monomer [5] = molecular target: T1, human A131-42 monomer; experiment: Inhibition of amyloid-beta aggregation (thioflavine-T fluorescence); type: biochemical; conditions: 25 μM amyloid-beta, 1 mM rhizolutin, 37° C., 120 hours
Description: An amyloid-beta solution was prepared by dissolving human A131-42 monomer (UniProt KB-P05067, a.a. 672 to 713) in DMSO to have a concentration of 10 mM. Then, the amyloid-beta solution was diluted with distilled water to prepare a solution having a concentration of 100 μM. Meanwhile, thioflavine-T (Sigma-Aldrich) was dissolved in 50 mM glycin buffer (pH 8.5) to have a concentration of 5 mM. Then, the resulting solution was diluted with 50 mM glycin buffer (pH 8.5) to have a concentration of 5 μM, and stored light-blocked in a dark room. To verify the inhibitory activity of rhizolutin on the amyloid-beta aggregation, the amyloid-beta solution was added to 1.5 mL microtubes to a concentration of 25 μM, and rhizolutin was added thereto at a concentration of 1 mM, followed by incubation at 37° C. for 120 hours. […] After a reaction was allowed for 5 minutes at room temperature in the darkroom, fluorescence was measured at an excitation wavelength of 450 nm and an emission wavelength of 485 nm by using a multi-mode microplate reader. Based on the fluorescence intensity of the group (control group) in which only amyloid-beta was treated and aggregated for 120 hours, the fluorescence intensity (%) of each group was calculated, and results are shown in FIG. 3A (one-way ANOVA test followed by Bonferroni's post-hoc comparison test, mean±SEM, ***: p<0.001).

T1 sequence (P05067 672-713): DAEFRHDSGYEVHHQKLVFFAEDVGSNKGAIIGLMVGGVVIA

Compound: CC[C@H]1C[C@@H]2/C(C)=C/[C@@H]3OC(=O)C[C@@H](O)C[C@H]3/C=C/C(C)=C\[C@H]2C(=O)O1 [rhizolutin]
- disaggregation of amyloid-beta aggregates (oligomer or fibril) (human A131-42 monomer [1]; 25 μM amyloid-beta pre-aggregated 72 hours, then 1 mM rhizolutin 72 hours, 37° C.): disaggregated the amyloid-beta aggregates
- amyloid-beta disaggregation activity compared with EPPS (human A131-42 monomer [1]; 1 mM rhizolutin vs 20 mM EPPS, same conditions): better than that of EPPS
- GFAP, biomarker of neuroinflammation (astrocytosis around the plaques) (APP/PS1 transgenic mice; brain tissue): also decreased
- number of amyloid-beta plaques in the hippocampus of the brain (APP/PS1 transgenic mice; thioflavine S, vs negative control group): decrease in the number of amyloid-beta plaques
- disaggregating tau aggregates compared with EPPS (Tau protein [2]): better effects
- inhibiting formation of tau aggregates compared with EPPS (Tau protein [3]): better effects
- expression of Bcl-2 [4]: the expression of Bcl-2 increased
- expression of cleaved caspase-3 [4]: the expression of cleaved caspase-3 decreased
- formation of amyloid-beta aggregates (oligomer or fibril) (human A131-42 monomer [5]): significantly inhibited
